Data: US7410986B2, “4-6-diphenyl pyridine derivatives as antiinflammatory agents” (Bayer Aktiengesellschaft, priority 2000, dated 2008)
Structures can show the parent of a compound that is named as a salt. Where two headings read alike, the source gives them in different places.

How the values were obtained:
[1] = test system: RANTES production in response to TNF-α from A549 cells; experiment: RANTES production in response to TNF-α from A549 cells; type: cell-based, human; conditions: 100 ng/ml TNF-α, compounds of about 40 to 90% purity, read-out: Cellular activity grade (A549, IC50)
human IKK-β = biological target: T1, human IKK-β (Homo sapiens, UniProt O14920); experiment: IKK-β kinase inhibitory assay; type: biochemical; conditions: compounds of about 40 to 90% purity, read-out: In vitro activity grade (invitro, IC50)
T1 construct: A cDNA fragment encoding human IKK-β open reading frame was generated by PCR; His; made in house; host or cells: Sf21 insect cells (baculovirus); the GST-IκBα substrate was made in E. coli
T1 sequence (O14920 1-756): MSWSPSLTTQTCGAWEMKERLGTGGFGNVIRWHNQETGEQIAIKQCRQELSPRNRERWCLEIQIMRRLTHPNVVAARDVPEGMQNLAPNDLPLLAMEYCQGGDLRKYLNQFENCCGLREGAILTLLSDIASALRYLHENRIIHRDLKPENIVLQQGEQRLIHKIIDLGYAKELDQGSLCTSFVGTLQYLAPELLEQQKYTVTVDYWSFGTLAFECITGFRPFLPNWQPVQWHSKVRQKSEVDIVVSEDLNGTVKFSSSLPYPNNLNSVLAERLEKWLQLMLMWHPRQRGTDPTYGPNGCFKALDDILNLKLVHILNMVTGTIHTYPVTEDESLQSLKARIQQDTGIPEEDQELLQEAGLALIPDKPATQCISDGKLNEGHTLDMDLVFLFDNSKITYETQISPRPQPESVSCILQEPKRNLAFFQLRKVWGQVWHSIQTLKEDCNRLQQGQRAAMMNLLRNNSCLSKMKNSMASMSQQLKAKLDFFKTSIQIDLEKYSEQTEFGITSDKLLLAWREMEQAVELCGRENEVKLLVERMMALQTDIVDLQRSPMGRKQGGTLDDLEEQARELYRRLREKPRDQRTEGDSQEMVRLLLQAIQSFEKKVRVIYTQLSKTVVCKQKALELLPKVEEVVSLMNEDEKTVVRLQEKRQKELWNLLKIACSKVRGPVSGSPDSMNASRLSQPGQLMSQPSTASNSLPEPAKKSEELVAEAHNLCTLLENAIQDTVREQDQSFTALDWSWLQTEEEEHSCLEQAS
From the text: IKK-β Kinase Inhibitory Assay.
• (1) Preparation of IKK-β Kinase Protein. • A cDNA fragment encoding human IKK-β open reading frame was generated by PCR with the use of a pair of primers designed from the published sequence (Woronicz J D et al. (1997) Science 278,866-869). A template was obtained from Quickclone cDNA (Clontech) using Elongase™ Amplification kit (Life Technologies). The DNA fragments generated by PCR were gel-purified and subcloned into pBluescript. The cDNA fragment cloned in pBluescript was inserted into pcDNA3.1/His C KpnI/NotI, and transferred into pVL1393 SmaI/XbaI (Pharmingen) to construct a baculovirus transfer vector. Then the vector, together with the linearized baculovirus (BaculoGold™, Pharmingen) was used to transfect Sf21 cells (Invitrogen, San Diego, Calif.). Generated recombinant baculovirus was cloned and amplified in Sf21 cells, grown in TNM-FH insect cell medium (Life Technologies, Inc.) supplemented with 10% FCS, […] Gentamycin, 0.1% Pluronic F-68 (Life Technologies, Inc.) as suspension culture (200 ml in 1 L Erlenmeyer flask; 27° C.; 130 rpm). Sf21 cells were infected with this amplified virus with a multiplicity of infection of 5 following standard protocols (Crossen R, Gruenwald S (1997) Baculovirus Expression Vector System Instruction Manual, Pharmingen Corporation) and harvested 48 hrs. later. The cells were lysed to obtain the produced chimeric protein of IKK-β kinase fused by histidine (His-tagged IKK-beta). • (2) The Preparation of Purified GST-IκBα Fusion Proteins • An expression vector containing the nucleotide sequence encoding fusion protein of GST with amino acid residues 1 to 54 of IκBα under the control of an IPTG-inducible promoter was constructed. The expression vector was introduced in E. coli and the transformant was cultured and lysed to obtain a GST-IκBα fusion protein. Then the resulting GST-IκBα fusion protein was purified and biotinated for kinase assay. • (3) The Measurement of IKK-β Kinase Activity • The 96-well format kinase assay of IKK-β was performed to test the inhibitory activity of the compounds of the present invention. First, 5 μl of a test compound was put in the presence of 2.5% dimethyl sulfoxide (DMSO) in each well in a U-bottomed 96-well plate (Falcon). For control wells of background (BG) and total phosphorylation (TP), 5 μl of 2.5% DMSO was put. Recombinant IKK-β (final 0.6 μg/ml) and bio-GST-IκBα (1-54) (final 0.2 μM) were diluted in 25 μl of 2×kinase buffer β (40 mM Tris-HCl, pH 7.6, 40 mM MgCl2, 40 mM β-glycerophosphate, 40 mM p-nitrophenyl-phosphate, 2 mM EDTA, 40 mM creatine phosphate, 2 mM DTT, 2 mM Na3VO4, 0.2 mg/ml BSA and 0.8 mM phenylmethylsulfonyl fluoride) and transferred to the 96-well plate. Bio-GST-IκBα (1-54) in 25 μl of 2×kinase buffer β without IKK-β was transferred to BG wells. Then 20 μl of 12.5 μM ATP, 62.5 μCi/ml [γ-^33P] ATP (Amersham Pharmacia Biotech) was added and the resulting mixture was incubated for 2 hrs. at room temperature. The kinase reactions were terminated by the addition of 150 μl of termination buffer (100 mM EDTA, 1 mg/ml BSA, 0.2 mg NaN3). One handred and fifty μl of the sample was transferred to a streptavidin-coated, white MTP (Steffens Biotechniche Analysen GmbH #08114E14. FWD) to capture the biotinylated substrates. After 1 hr. of incubation, non-bound radioactivity was eliminated by washing the wells five times with 300 μl of washing buffer including 0.9% NaCl and 0.1% (w/v) Tween-20 with the use of a MW-96 plate washer (BioTec). The bound radioactivity was determined after the addition of 170 μl MicroScint-PS scintillation cocktail (Packard) using a TopCount scintillation counter. Syk Tyrosine Kinase Inhibitory Assay for Selectivity. • (1) Preparation of Syk Protein • A cDNA fragment encoding human Syk openreading frame was cloned from total RNA of human Burkitt's lymphoma B cell lines, Raji (American Type Culture Collection), with the use of RT-PCR method. […]

SMILES	IC50 ([1]; Homo sapiens, A549, 24 h)	IC50 (human IKK-β)	IC50 ([1]; 24 hrs)
N#Cc1c(-c2ccccc2C(=O)NCCN2CCCCC2)cc(-c2ccccc2O)nc1N [Example 6-03]	1000 to 10000 nM	< 500 nM	
CC(C)C[C@H](N)C(=O)Nc1ccc(F)c(-c2cc(-c3ccccc3O)nc(N)c2C#N)c1 [Example 2-11]	1000 to 10000 nM	500 to 2000 nM	
CCCCNCC(=O)Nc1cc(-c2cc(-c3ccccc3O)nc(N)c2C#N)ccc1OCC1CC1 [Example 4-33]	> 10000 nM	> 10000 nM	
N#Cc1c(-c2ccc(N3CCC(NC(=O)C(F)(F)F)C3)c(NC(=O)CCN3CCCCC3)c2)cc(-c2ccccc2O)nc1N (stereo not drawn) [Example 3-17]	1000 to 10000 nM	< 500 nM	
N#Cc1c(-c2cccc(NC(=O)C(O)CCC(=O)O)c2)cc(-c2cc(F)ccc2O)nc1N (stereo not drawn) [Example 1-16]	> 10000 nM	500 to 2000 nM	
N#Cc1c(-c2ccc(Cl)c(NC(=O)C(O)CCC(=O)O)c2)cc(-c2ccccc2O)nc1N (stereo not drawn) [Example 1-15]	> 10000 nM	< 500 nM	
CCCNCC(=O)Nc1cccc(-c2cc(-c3ccccc3O)nc(N)c2C#N)c1 [Example 4-19]	1000 to 10000 nM	500 to 2000 nM	
N#Cc1c(-c2cccc(N)c2)cc(-c2ccccc2O)nc1N [Example 1-08]		> 10000 nM	> 10000 nM
CN(C)c1ccc(-c2cc(-c3ccccc3O)nc(N)c2C#N)cc1NC(=O)CCN1CCCCC1 [Example 3-08]	1000 to 10000 nM	< 500 nM	
N#Cc1c(-c2cc(NC(=O)CCN3CCCCC3)ccc2Cl)cc(-c2ccccc2O)nc1N [Example 2-10]	1000 to 10000 nM	500 to 2000 nM	
N#Cc1c(-c2ccc(NC(=O)C(O)CCC(=O)O)cc2)cc(-c2ccccc2O)nc1N (stereo not drawn) [Example 1-10]	> 10000 nM	< 500 nM	
N#Cc1c(-c2ccc(N3CCCC3)c(NC(=O)CCN)c2)cc(-c2ccccc2O)nc1N [Example 3-04]	1000 to 10000 nM	< 500 nM	
N#Cc1c(-c2ccc(N)c(O)c2)cc(-c2ccccc2O)nc1N [Example 2-15]	1000 to 10000 nM	< 500 nM	
N#Cc1c(-c2cc(NC(=O)CCN)ccc2F)cc(-c2ccccc2O)nc1N [Example 2-12]	> 10000 nM	2000 to 10000 nM	
N#Cc1c(-c2ccc(N3CCC(N)C3)c(NC(=O)CCN)c2)cc(-c2ccccc2O)nc1N (stereo not drawn) [Example 3-02]	1000 to 10000 nM	< 500 nM	
N#Cc1c(-c2cccc(NC(=O)CNC3CCCC3)c2)cc(-c2ccccc2O)nc1N [Example 4-17]	1000 to 10000 nM	500 to 2000 nM	
N#Cc1c(-c2cccc(NC(=O)C3CCC(=O)O3)c2)cc(-c2ccccc2O)nc1N (stereo not drawn) [Example 1-1, N-{3-[2-amino-3-cyano-6-(2-hydroxyphenyl)-4-pyridinyl]phenyl}-5-oxotetrahydro-2-furancarboxamide]		500 to 2000 nM	1000 to 10000 nM
CC(=O)Nc1nc(-c2ccccc2O)cc(-c2cccc(NC(=O)CCN3CCCCC3)c2)c1C#N [Example 2-06]	> 10000 nM	> 10000 nM	
COCC(=O)Nc1cccc(-c2cc(-c3ccccc3O)nc(N)c2C#N)c1 [Example 1-04]	> 10000 nM	500 to 2000 nM	
COCCNCC(=O)Nc1cc(-c2cc(-c3ccccc3O)nc(N)c2C#N)ccc1N1CCC(NC(=O)C(F)(F)F)C1 (stereo not drawn) [Example 4-37]	1000 to 10000 nM	< 500 nM	
N#Cc1c(-c2cc(NC(=O)CCN3CCCCC3)ccc2F)cc(-c2ccccc2O)nc1N [Example 2-14]	1000 to 10000 nM	500 to 2000 nM	
N#Cc1c(-c2cccc(NC(=O)[C@@H](N)CC(=O)O)c2)cc(-c2ccccc2O)nc1N [Example 2-03]	> 10000 nM	500 to 2000 nM	
N#Cc1c(-c2ccc(N3CCCCC3)c(NC(=O)CCN3CCCCC3)c2)cc(-c2ccccc2O)nc1N [Example 3-10]	1000 to 10000 nM	2000 to 10000 nM	
CCN(CCO)c1ccc(-c2cc(-c3ccccc3O)nc(N)c2C#N)cc1NC(=O)CCN [Example 3-05]	1000 to 10000 nM	500 to 2000 nM	
N#Cc1c(-c2cccc(NC(=O)CN3CCNCC3)c2)cc(-c2ccccc2O)nc1N [Example 4-07]	1000 to 10000 nM	500 to 2000 nM	
CCOC(=O)C1CCN(CCC(=O)Nc2cccc(-c3cc(-c4ccccc4O)nc(N)c3C#N)c2)CC1 [Example 4-26]	> 10000 nM	500 to 2000 nM	
N#Cc1c(-c2cccc(N)c2)cc(-c2ccccc2O)nc1N [Example 1-07]	> 10000 nM	2000 to 10000 nM	
CS(=O)(=O)Nc1cccc(-c2cc(-c3ccccc3O)nc(N)c2C#N)c1 [Example 1-06]	1000 to 10000 nM	2000 to 10000 nM	
CN(C)c1ccc(-c2cc(-c3ccccc3O)nc(N)c2C#N)cc1NC(=O)CNCC1CC1 [Example 4-1, N^1-[5-[2-amino-3-cyano-6-(2-hydroxyphenyl)-4-pyridinyl]-2-(dimethylamino)phenyl]-N^2-(cyclopropylmethyl)glycinamide hydrochloride]	1000 to 10000 nM	500 to 2000 nM	
N#Cc1c(-c2ccccc2C(=O)O)cc(-c2ccccc2O)nc1N [Example 5-05]	> 10000 nM	500 to 2000 nM	
